# Measurements published in US20220396819A1, “METHOD FOR PRODUCING PEPTIDE HAVING PHYSIOLOGICAL ACTIVITY, AND PEPTIDE COMPRISING SHORT LINKER” (priority 2019, published 2022).
# Like-named read-outs stand apart in the source and are kept apart here. Positions of bridges follow the written chain, without caps; N, C: chain ends. No end group written: not given here.
# T1: EpoR (Homo sapiens, UniProt P19235)
# T1 construct: host or cells: cells included in the PathHunter eXpress EpoR-JAK2 Functional Assay Kit
# T1 sequence (P19235 25-508): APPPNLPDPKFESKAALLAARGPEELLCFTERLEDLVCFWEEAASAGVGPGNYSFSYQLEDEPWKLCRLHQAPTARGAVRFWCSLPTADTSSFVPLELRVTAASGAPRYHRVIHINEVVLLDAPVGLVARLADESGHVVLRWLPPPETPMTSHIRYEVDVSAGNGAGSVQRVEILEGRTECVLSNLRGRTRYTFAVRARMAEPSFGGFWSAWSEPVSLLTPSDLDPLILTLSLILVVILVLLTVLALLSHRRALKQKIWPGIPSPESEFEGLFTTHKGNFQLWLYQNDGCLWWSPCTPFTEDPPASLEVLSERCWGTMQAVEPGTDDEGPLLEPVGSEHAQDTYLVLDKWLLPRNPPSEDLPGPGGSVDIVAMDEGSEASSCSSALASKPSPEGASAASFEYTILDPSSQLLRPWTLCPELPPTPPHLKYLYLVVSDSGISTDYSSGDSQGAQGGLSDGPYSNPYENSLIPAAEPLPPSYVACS
# B1: MAETGGLYACHMGPMTWVCQPLRGSAPSPSSAPASASAPASPASASASASPASSPASASSASPAASSASPASSGGLYACHMGPMTWVCQPLRG (peptide)
# chain: MAETGGLYACHMGPMTWVCQPLRGSAPSPSSAPASASAPASPASASASASPASSPASASSASPAASSASPASSGGLYACHMGPMTWVCQPLRG
# modifications: MAET-EPO-PAS49-b; DISULFID (10)..(19) Disulfid bridge between Cys-10 and Cys-19; DISULFID (79)..(88) Disulfid bridge between Cys-79 and Cys-88
# B2: AET-EPO-PAS100: EPO-PAS dimer peptide linker variant, PAS linker of 100 amino acids, SEQ ID NO: 128 (protein)
# chain: AETGGLYACHMGPMTWVCQPLRGAAPAAPAPAAPAAPAPAAPAAPAPAAPAAPAPAAPAAPAPAAPAAPAPAAPAAPAPAAPAAPAPAAPAAPAPAAPAAPAPAAPAAPAPAAPAAPAPAAPAGGLYACHMGPMTWVCQPLRG
# B3: AET-EPO-PAS22-PAS200: stabilized EPO-PAS dimer peptide, PAS200 bound to the C-terminus of AET-EPO-PAS22, SEQ ID NO: 144 (protein)
# chain: AETGGLYACHMGPMTWVCQPLRGAAPAAPAPAAPAAPAPAAPAAPGGLYACHMGPMTWVCQPLRGAAPAAPAPAAPAAPAPAAPAAPAPAAPAAPAPAAPAAPAPAAPAAPAPAAPAAPAPAAPAAPAPAAPAAPAPAAPAAPAPAAPAAPAPAAPAAPAPAAPAAPAPAAPAAPAPAAPAAPAPAAPAAPAPAAPAAPAPAAPAAPAPAAPAAPAPAAPAAPAPAAPAAPAPAAPAAPAPAAPAAPAPAAPAAPAPAAPAAPAP
# B4: AET-EPO-PAS22-PAS600: stabilized EPO-PAS dimer peptide, PAS600 bound to the C-terminus of AET-EPO-PAS22, SEQ ID NO: 145 (protein)
# chain: AETGGLYACHMGPMTWVCQPLRGAAPAAPAPAAPAAPAPAAPAAPGGLYACHMGPMTWVCQPLRGAAPAAPAPAAPAAPAPAAPAAPAPAAPAAPAPAAPAAPAPAAPAAPAPAAPAAPAPAAPAAPAPAAPAAPAPAAPAAPAPAAPAAPAPAAPAAPAPAAPAAPAPAAPAAPAPAAPAAPAPAAPAAPAPAAPAAPAPAAPAAPAPAAPAAPAPAAPAAPAPAAPAAPAPAAPAAPAPAAPAAPAPAAPAAPAPAAPAAPAPAAPAAPAPAAPAAPAPAAPAAPAPAAPAAPAPAAPAAPAPAAPAAPAPAAPAAPAPAAPAAPAPAAPAAPAPAAPAAPAPAAPAAPAPAAPAAPAPAAPAAPAPAAPAAPAPAAPAAPAPAAPAAPAPAAPAAPAPAAPAAPAPAAPAAPAPAAPAAPAPAAPAAPAPAAPAAPAPAAPAAPAPAAPAAPAPAAPAAPAPAAPAAPAPAAPAAPAPAAPAAPAPAAPAAPAPAAPAAPAPAAPAAPAPAAPAAPAPAAPAAPAPAAPAAPAPAAPAAPAPAAPAAPAPAAPAAPAPAAPAAPAPAAPAAPAPAAPAAPAPAAPAAPAPAAPAAPAPAAPAAPAPAAPAAPAPAAPAAPAPAAPAAPAPAAPAAPAPAAPAAPAPAAPAAPAPAAPAAPAP
# Biological target: T1, EpoR
# Assay: EpoR activation ability, PathHunter eXpress EpoR-JAK2 Functional Assay Kit
# Assay type: cell-based
# Conditions: for maximum activation ability compared with rhEPO: Example 22, FIG. 35; for EpoR activation, concentration dependence: culture supernatant, FIGS. 35, 55 to 57, 61; for EpoR activation, relative activity among linker lengths: Example 38, cell-free translation solution, FIG. 70
# Experimental: The EpoR activation ability of the EPO-PAS dimer peptide was evaluated using PathHunter (registered trademark) eXpress EpoR-JAK2 Functional Assay Kit (DiscoverX).
# (§1) Cells for EPO activity evaluation included in PathHunter (registered trademark) eXpress EpoR-JAK2 Functional Assay Kit were seeded on a 96-well plate and cultured for 24 hours at 37° C. under 5% CO2. […] As a negative control, the culture supernatant (FIG. 32, lane 18) obtained by culturing as described in Example 20 except for using a vector containing no gene for expressing the EPO-PAS dimer peptide, diluted at the same ratio as the culture supernatant containing AET-EPO-PAS8 or AET-EPO-PAS22, was added. The prepared Substrate Reagent was added to the cells stimulated at room temperature for 3 hours, and the cells were incubated for 60 minutes. The chemiluminescence intensity was quantified with a Nivo plate reader (Perkin Elmer).
# The EpoR activation ability of the EPO-PAS dimer peptide linker variant was evaluated using PathHunter (registered trademark) eXpress EpoR-JAK2 Functional Assay Kit (DiscoverX).
# as §1, with “48,” for “32,”, “26)” for “18)”, “30” for “20”
# The EpoR activation ability of the stabilized EPO-PAS dimer peptide was evaluated using PathHunter (registered trademark) eXpress EpoR-JAK2 Functional Assay Kit (DiscoverX).
# Cells for EPO activity evaluation included in PathHunter (registered trademark) eXpress EpoR-JAK2 Functional Assay Kit were seeded on a 96-well plate and cultured for 24 hours at 37° C. under 5% CO2. To the cells, a culture supernatant containing 14.2 μg/L to 220 pg/L AET-EPO-PAS22, AET-EPO-PAS22-PAS200, or AET-EPO-PAS22-PAS600 (cultured as described in Example 20 or 33) was added. As a negative control, the culture supernatant (FIG. 58, lane 20) obtained by culturing as described in Example 33 except for using a vector containing no gene for expressing the EPO-PAS dimer peptide, diluted at the same ratio as the culture supernatant containing AET-EPO-PAS22, AET-EPO-PAS22-PAS200, or AET-EPO-PAS22-PAS600, was added. The prepared Substrate Reagent was added to the cells stimulated at room temperature for 3 hours, and the cells were incubated for 60 minutes. The chemiluminescence intensity was quantified with a Nivo plate reader (Perkin Elmer).
# Cells for EPO activity evaluation included in PathHunter (registered trademark) eXpress EpoR-JAK2 Functional Assay Kit were seeded on a 96-well plate and cultured for 24 hours at 37° C. under 5% CO2. To the cells, a cell-free translation solution with translated AET-EPO-PAS8, AET-EPO-PAS49-b, or AET-EPO-PAS100-b diluted to a predetermined concentration was added. As a negative control, a cell-free translation solution with untranslated peptide, diluted at the same ratio as the cell-free translation solution with translated AET-EPO-PAS8, AET-EPO-PAS49, or AET-EPO-PAS100, was added. The prepared Substrate Reagent was added to the cells stimulated at room temperature for 3 hours, and the cells were incubated for 60 minutes. The chemiluminescence intensity was quantified with a Nivo plate reader (Perkin Elmer).
# [1] = Example 22, Table 4, dimers as culture supernatant, read-out: EC50 (g/L) (converted)
# [2] = Example 35, Table 7, AET-EPO-PAS22 value is that of Example 22
molecule,measurement,setting,value
"AETGGLYACHMGPMTWVCQPLRGAAPAAPAPAAPAAPAPAAPAAPAPAAPAAPAPAAPAAPAPAAPAAPAPAGGLYACHMGPMTWVCQPLRG (disulfide 9-18, 78-87) [AET-EPO-PAS49]",EC50,read-out: EC50 (g/L) (converted),0.501 nM
"AETGGLYACHMGPMTWVCQPLRGAAPAAPAPAAPAAPAPAAPAAPGGLYACHMGPMTWVCQPLRG (disulfide 9-18, 51-60) [AET-EPO-PAS22]",maximum activation ability compared with rhEPO,,almost the same as that of rhEPO
same,EC50,[1],0.0531 nM
same,"EpoR activation, concentration dependence",,activated EpoR in a concentration-dependent manner
"AETGGLYACHMGPMTWVCQPLRGAAPAAPAPGGLYACHMGPMTWVCQPLRG (disulfide 9-18, 37-46) [AET-EPO-PAS8]",maximum activation ability compared with rhEPO,,almost the same as that of rhEPO
same,EC50,[1],0.036 nM
same,"EpoR activation, concentration dependence",,activated EpoR in a concentration-dependent manner
"AETGGLYACHMGPMTWVCQPLRGGGGGSGGGGGLYACHMGPMTWVCQPLRG (disulfide 9-18, 37-46) [AET-EPO-GS8]",EC50,,0.103 nM
"AETGGLYACHMGPMTWVCQPLRGGGGGSGGGGSGGGGSGGGGSGGGGLYACHMGPMTWVCQPLRG (disulfide 9-18, 51-60) [AET-EPO-GS22]",EC50,,0.216 nM
"MAETGGLYACHMGPMTWVCQPLRGAAPAAPAPGGLYACHMGPMTWVCQPLRG (disulfide 10-19, 38-47) [MAET-EPO-PAS8]","EpoR activation, relative activity among linker lengths",,higher activity than MAET-EPO-PAS100-b
B1,"EpoR activation, relative activity among linker lengths",,higher activity than MAET-EPO-PAS100-b
B2,EC50,"Example 32, Table 6, rhEPO, AET-EPO-PAS8, AET-EPO-PAS22 values are those in Example 22",6.6 ng/mL
B3,EC50,[2],0.85 ng/mL
B4,EC50,[2],0.32 ng/mL
